From ChEMBL document CHEMBL1149956, “Synthesis and biological evaluation of new 5-HPETE analogs” (Bioorg Med Chem Lett, 1994) come the findings set out here.

The target in assay [1] is T1, Polyunsaturated fatty acid 5-lipoxygenase (Homo sapiens) (UniProt P09917).
T1 sequence (whole entry): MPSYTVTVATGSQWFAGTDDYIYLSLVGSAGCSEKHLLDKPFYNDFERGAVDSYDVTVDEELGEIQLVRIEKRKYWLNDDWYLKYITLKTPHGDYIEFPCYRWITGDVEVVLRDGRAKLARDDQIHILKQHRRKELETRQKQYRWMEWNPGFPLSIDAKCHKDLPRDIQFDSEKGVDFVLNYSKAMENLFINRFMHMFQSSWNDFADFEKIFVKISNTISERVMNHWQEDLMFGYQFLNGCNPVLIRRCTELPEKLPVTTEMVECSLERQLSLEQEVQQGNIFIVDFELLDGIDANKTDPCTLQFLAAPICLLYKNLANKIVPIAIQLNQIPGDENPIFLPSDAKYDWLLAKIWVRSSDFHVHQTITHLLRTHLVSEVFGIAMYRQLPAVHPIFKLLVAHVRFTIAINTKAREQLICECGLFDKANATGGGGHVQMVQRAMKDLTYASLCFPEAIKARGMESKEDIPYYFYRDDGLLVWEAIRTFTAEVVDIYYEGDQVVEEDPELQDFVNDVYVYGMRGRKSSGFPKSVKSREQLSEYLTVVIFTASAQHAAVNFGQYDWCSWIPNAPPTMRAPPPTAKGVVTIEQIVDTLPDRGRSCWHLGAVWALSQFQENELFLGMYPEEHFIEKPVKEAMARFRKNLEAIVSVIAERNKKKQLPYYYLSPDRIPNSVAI
In words: Tested for the inhibition of 5-lipoxygenase from human polymorphonuclear leukocytes(PMN) at 10 uM concentration of the compound; value ranges from 70-90.

The target in assay [2] is T1, Polyunsaturated fatty acid 5-lipoxygenase (Homo sapiens). Description: Tested for the inhibition of 5-lipoxygenase from human polymorphonuclear leukocytes(PMN) at 10 uM concentration of the compound; IA= Inactive.

Active and inactive are the calls of the source. No cut-off for these calls is given here.

In the case of `CCCCC/C=C\C/C=C\C/C=C\C=C\c1cc(CC(=O)OC)no1`, the inhibition – broadly, how much of the control response was suppressed – in assay [1] came out at 70%.
For `CCCCCCCCCCC/C=C\C=C\c1cc(CC(=O)OC)no1`, the inhibition in assay [1] stood at 70%.
As to `CCCCC/C=C\C/C=C\C/C=C\C=C\C1CC(CC(=O)OC)=NO1` (stereo not given), the inhibition result in assay [2] was “inactive”.
Turning to `CCCCCCCCCCC/C=C\C=C\c1cc(C/C=N/O)no1`, the inhibition entry in assay [2] was “inactive”.
For the compound `CCCCCCCCCCC/C=C\C=C\C1CC(CC(=O)OC)=NO1` (stereo not given), in assay [1], the inhibition turned out to be 70%.
